Test results from patent US9328138B2 (priority 2011, dated 2016).
Structures can show the parent of a compound that is named as a salt.

Assays:
[1] = target: HCV NS3 protease genotype 3a (3A-1) (Hepatitis C virus genotype 3a, UniProt Q81258); experiment: HCV NS3 protease time-resolved fluorescence (TRF) assay, genotype 3a; type: biochemical; details: Ki 3a
Outline: (§1)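 Pre-incubation of NS3/NS4A protease with inhibitor for 10 min in pH 7.5 HEPES buffer with 10 mM DTT; 25 nM TRF peptide substrate, hydrolysis 6 h at room temperature. Fluorescence read at ex 340/em 615 nm with 400 μs delay, enzyme level set for S/B 5-20; IC50 by four-parameter fit.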

[2] = target: T1, HCV genotype 1b (BK) NS3 modified enzyme with a R155K mutation (Hepatitis C virus genotype 1b, UniProt P26663, R1181K); experiment: HCV NS3 protease time-resolved fluorescence (TRF) assay, genotype 1b R155K; type: biochemical; details: Ki 1b R155K
T1 construct: HCV genotype 1b (BK) NS3 modified enzyme
Outline: as §1

[3] = genotype 1b (BK) NS3 R155K, single value
[4] = first of two values printed in the cell (not explained)
[5] = second of two values printed in the cell (not explained)

Row | Structure (SMILES) | Ki [1] [nM] | Ki [2, 3] [nM] | Ki [2, 4] [nM] | Ki [2, 5] [nM]
1 | C=C[C@@H]1C[C@]1(NC(=O)[C@@H]1C[C@@H]2CN1C(=O)[C@H](C1CCCCC1)NC(=O)O[C@@H]1C[C@H]1CCCCCc1c(nc3ccccc3c1OCCCN1CCN(S(C)(=O)=O)CC1)O2)C(=O)NS(=O)(=O)C1(C)CC1 [Example 165, (1aR,5S,8S,10R,22aR)-5-cyclohexyl-N-[(1R,2S)-2-ethenyl-1-{[(1-methylcyclopropyl)sulfonyl]carbamoyl}cyclopropyl]-17-{3-[4-(methylsulfonyl)piperazin-1-yl]propoxy}-3,6-dioxo-1,1a,3,4,5,6,9,10, 18,19,20,21,22,22a-tetradecahydro-8H-7,10-methanocyclopropa[18,19][1,10,3,6] dioxadiazacyclononadecino[11,12-b] quinoline-8-carboxamide] | 2.8 | 0.24 | – | –
2 | C=C[C@@H]1C[C@]1(NC(=O)[C@@H]1C[C@@H]2CN1C(=O)[C@H](C1CCCCC1)NC(=O)O[C@@H]1C[C@H]1CCCCCc1c(nc3ccccc3c1OC1CC3COCC(C1)N3)O2)C(=O)NS(=O)(=O)C1(C)CC1 (stereo partly drawn) [Example 288, (1aR,5S,8S,10R,22aR)-5-cyclohexyl-N-[(1R,2S)-2-ethenyl-1-{[(1-methylcyclopropyl)sulfonyl]carbamoyl}cyclopropyl]-17-(3-oxa-9-azabicyclo[3.3.1]non-7-yloxy)-3,6-dioxo-1,1a,3,4,5,6,9,10,18,19,20,21,22,22a-tetradecahydro-8H-7,10-methanocyclopropa[18,19][1,10,3,6]dioxadiazacyclononadecino[11,12-b]quinoline-8-carboxamide] | 0.224 | – | 0.018 | 0.05
3 | C=C[C@@H]1C[C@]1(NC(=O)[C@@H]1C[C@@H]2CN1C(=O)[C@H](C(C)(C)C)NC(=O)O[C@@H]1C[C@H]1CCCCCc1c(nc3ccccc3c1OCCCN1CCC3(CCCC3)C1)O2)C(=O)NS(=O)(=O)C1(C)CC1 [Example 207, (1aR,5S,8S,10R,22aR)-17-[3-(2-azaspiro[4.4]non-2-yl)propoxy]-5-tert-butyl-N-[(1R,2S)-2-ethenyl-1-{[(1-methylcylcopropyl)sulfonyl]carbamoyl}cyclopropyl]-3,6-dioxo-1,1a,3,4,5,7,9, 10,18,19,20,21,22,22a-tetradecahydro-8H-7,10-methanocyclopropa[18,19][1,10,3,6] dioxadiazacyclononadecino[11,12-b] quinoline-8-carboxamide] | 1.3 | 0.11 | – | –
4 | C=C[C@@H]1C[C@]1(NC(=O)[C@@H]1C[C@@H]2CN1C(=O)[C@H](C(C)(C)C)NC(=O)O[C@@H]1C[C@H]1CCCCCc1c(nc3c(OC)cccc3c1OCCCN1CC3(COC3)C1)O2)C(=O)NS(=O)(=O)C1(C)CC1 [Example 153, (1aR,5S,8S,10R,22aR)-5-tert-butyl-N-[(1R,2S)-2-ethenyl-1-{[(1-methylcyclopropyl)sulfonyl]carbamoyl}cyclopropyl]-13-methoxy-17-[3-(2-oxa-6-azaspiro[3.3]hept-6-yl)propoxy]-3,6-dioxo-1,1a, 3,4,5,6,9,10,18,19,20,21,22,22a-tetradeca hydro-8H-7,10-methanocyclopropa[18,19][1,10,3,6] dioxadiazacyclononadecino [11,12-b]quinoline-8-carboxamide] | 0.61 | 0.059 | – | –
5 | C=CC1C[C@]1(NC(=O)[C@@H]1C[C@@H]2CN1C(=O)[C@H](C(C)(C)C)NC(=O)O[C@@H]1CCC[C@H]1CCCCCc1c(nc3ccccc3c1OCCN1CCOCC1)O2)C(=O)NS(=O)(=O)C1(COCCOC)CC1 (stereo partly drawn) [Example 65, (3aR,7S,10S,12R, 24aR)-7-tert-butyl-N-{(1R,2S)-2-ethenyl-1-[({1-[(2-methoxyethoxy)methyl]cyclopropyl}sulfonyl)carbamoyl]cyclopropyl}-19-[2-(morpholin-4-yl)ethoxy]-5,8-dioxo-1,2,3,3a,5,6,7,8,11, 12,20,21,22,23,24, 24a-hexadecahydro-10H-9,12-methanocyclopenta [18,19][1,10,3,6] dioxadiaza-cyclononadecino [11,12-b]quinoline-10-carboxamide] | 16 | 0.56 | – | –
6 | C=C[C@@H]1C[C@]1(NC(=O)[C@@H]1C[C@@H]2CN1C(=O)[C@H](C(C)(C)C)NC(=O)O[C@@H]1C[C@H]1CCCCCc1c(nc3ccccc3c1OC1CC3CCC(C1)N3C(=O)OC(C)(C)C)O2)C(=O)NS(=O)(=O)C1(C)CC1 (single isomer, unassigned) [Example 278] | 740 | – | 0.86 | 20
7 | C=C[C@@H]1CC1(NC(=O)[C@@H]1C[C@@H]2CN1C(=O)[C@H](C1CCCCC1)NC(=O)O[C@@H]1C[C@H]1CCCCCc1c(nc3ccccc3c1OC1CCNCC1F)O2)C(=O)NS(=O)(=O)C1(C)CC1 (stereo in doubt) [Example 293, (3S,4R)-4-{[(1aR,5S,8S,10R,22aR)-5-cyclohexyl-8-{[(1R,2S)-2-ethenyl-1-{[(1-methylcyclopropyl)sulfonyl]carbamoyl}cyclopropyl]carbamoyl}-3,6-dioxo-1,1a,3,4,5,6,9,10,18,19,20,21,22,22a-tetradecahydro-8H-7,10-methanocyclopropa[18,19][1,10,3,6]dioxadiazacyclononadecino[11,12-b]quinolin-17-yl]oxy}-3-fluoropiperidinium chloride] | 1.3 | – | 0.029 | 0.138
8 | C=C[C@@H]1C[C@]1(NC(=O)[C@@H]1C[C@@H]2CN1C(=O)[C@H](C1CCCC1)NC(=O)O[C@@H]1CCC[C@H]1CC/C=C/Cc1c(nc3ccccc3c1OCC(F)(F)CO)O2)C(=O)NS(=O)(=O)C1CC1 [Example 73, (3aR,7S,10S,12R,21E,24aS)-7-cyclopentyl-N-{(1R,2S)-1-[(cyclopropylsulfonyl)carbamoyl]-2-ethenylcyclopropyl}-19-(2,2-difluoro-3-hydroxypropoxy)-5,8-dioxo-1,2,3,3a,5,6,7,8,11,12,20,23,24,24a-tetradecahydro-10H-9,12-methanocyclopenta[18,19][1,10,3,6]dioxadiazacyclononadecino[11,12-b]quinoline-10-carboxamide] | 2.5 | 0.14 | – | –
9 | C=C[C@@H]1C[C@]1(NC(=O)[C@@H]1C[C@@H]2CN1C(=O)[C@H](C(C)(C)C)NC(=O)O[C@@H]1CCC[C@H]1CC/C=C/Cc1c(nc3ccccc3c1OCCCOC)O2)C(=O)NS(=O)(=O)C1(C)CC1 [Example 90, (3aR,7S,10S,12R,21E,24aS)-7-tert-butyl-N-[(1R,2S)-2-ethenyl-1-{[(1-methylcyclopropyl)sulfonyl]carbamoyl}cyclopropyl]-19-(3-methoxypropoxy)-5,8-dioxo-1,2,3,3a,5,6,7,8,11,12,20,23,24,24a-tetradecahydro-10H-9,12-methanocyclopenta[18,19][1,10,3,6] dioxadiazacyclononadecino [11,12-b]quinoline-10-carboxamide] | 1.6 | 0.15 | – | –
10 | C=C[C@@H]1C[C@]1(NC(=O)[C@@H]1C[C@@H]2CN1C(=O)[C@H](C1CCCCC1)NC(=O)O[C@@H]1C[C@H]1CCCCCc1c(nc3ccccc3c1OCCCN1CCN(C(=O)OC(C)(C)C)CC1)O2)C(=O)NS(=O)(=O)C1(C)CC1 [Example 264, tert-butyl 4-(3-{[(1aR,5S,8S,10R,22aR)-5-cyclohexyl-8-{[(1R,2S)-2-ethenyl-1-{[(1-methylcyclopropyl)sulfonyl]carbamoyl}cyclopropyl]carbamoyl}-3,6-dioxo-1,1a,3,4,5,6,9,10,18,19,20,21,22,22a-tetradecahydro-8H-7,10-methanocyclopropa[18,19][1,10,3,6]dioxadiazacyclononadecino[11,12-b]quinolin-17-yl]oxy}propyl)piperazine-1-carboxylate] | 7.7 | – | 0.037 | 1.4
11 | C=C[C@@H]1C[C@]1(NC(=O)[C@@H]1C[C@@H]2CN1C(=O)[C@H](C(C)(C)C)NC(=O)O[C@@H]1C[C@H]1CCCCCc1c(nc3ccccc3c1OC1C3COCC1CN(CC1CC1)C3)O2)C(=O)NS(=O)(=O)C1(C)CC1 (stereo partly drawn) [Example 256, 9-{[(1aR,5S,8S,10R,22aR)-5-tert-butyl-8-{[(1R,2S)-2-ethenyl-1-{[(1-methylcyclopropyl)sulfonyl]carbamoyl}cyclopropyl]carbamoyl}-3,6-dioxo-1,1a,3,4,5,6,9,10,18,19,20,21,22,22a-tetradecahydro-8H-7,10-methanocyclopropa[18,19][1,10,3,6]dioxadiazacyclononadecino[11,12-b]quinolin-17-yl]oxy}-7-(cyclopropylmethyl)-3-oxa-7-azoniabicyclo[3.3.1]nonane formate] | 5.45 | – | 0.021 | 0.122
12 | C=C[C@@H]1C[C@]1(NC(=O)[C@@H]1C[C@@H]2CN1C(=O)[C@H](C1CCCC1)NC(=O)O[C@@H]1C[C@H]1CCCCCc1c(nc3ccccc3c1OCCN1CCOCC1)O2)C(=O)NS(=O)(=O)C1(C)CC1 [Example 121, (1aR,5S,8S,10R,22aR)-5-cyclopentyl-N-[(1R,2S)-2-ethenyl-1-{[(1-methylcyclopropyl)sulfonyl]carbamoyl}cyclopropyl]-17-[2-(morpholin-4-yl)ethoxy]-3,6-dioxo-1,1a,3,4,5,6,9,10,18,19,20,21,22, 22a-tetradeca hydro-8H-7,10-methanocyclopropa[18,19][1,10,3,6] dioxadiazacyclononadecino [11,12-b]quinoline-8-carboxamide] | 12 | 0.38 | – | –
